{"source": "patent US6355619B1", "about": "“Peptide tumor cell growth inhibitors” (Board of Regents, The University of Texas System, priority 1996, dated 2002)", "key": {"[1]": {"target": "T1, MIP-1α binding to human neutrophils (Homo sapiens, UniProt P32246)", "T1 construct": "endogenous in cells; host or cells: human neutrophils", "T1 sequence (P32246 whole entry)": "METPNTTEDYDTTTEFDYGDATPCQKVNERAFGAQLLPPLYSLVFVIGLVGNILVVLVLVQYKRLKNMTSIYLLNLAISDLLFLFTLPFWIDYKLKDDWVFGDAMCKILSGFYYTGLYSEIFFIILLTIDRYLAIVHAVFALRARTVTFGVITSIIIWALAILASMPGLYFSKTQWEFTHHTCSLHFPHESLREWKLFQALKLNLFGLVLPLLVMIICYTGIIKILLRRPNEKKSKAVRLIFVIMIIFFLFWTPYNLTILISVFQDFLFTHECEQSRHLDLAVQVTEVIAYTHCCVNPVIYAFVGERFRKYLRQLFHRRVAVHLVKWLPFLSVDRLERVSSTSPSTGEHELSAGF", "test": "Binding of radiolabeled MIP-1α to human neutrophils"}, "[2]": {"test_system": "MGSA/GROα receptors on Hs 294T melanoma cells", "test": "Binding of 125I-MGSA/GROα to Hs 294T melanoma cells", "parameters": "species or system human", "details": "1 nM 125I-labeled MGSA/GROα, read-out: EC50, inhibition of MGSA/GROα binding", "procedure": "FIG. 11A. The binding of ^125I-labeled MGSA/GROα to melanoma cell lines, Hs 294T and RPMI-7951. The melanoma cells, 1×10^5, were incubated with 1 nM ^125I-MGSA/GROα in the presence of various concentrations of unlabeled MGSA/GROα. Binding inhibition curve with Hs 294T (closed circles) and RPMI-7951 (open circles). The lines shown in the graph are the best fit curves calculated using the London II computer program.\nFIG. 13. The effect of Antileukinate on the binding of radiolabeled MGSA/GROα to the melanoma cell lines. The melanoma cells, Hs 294T (closed circles) and RPMI-7951 (open circles), were incubated with 1 nM ^125I-MGSA/GROα in the presence of different concentrations of Antileukinate. The lines shown in the graph are the best fit curves calculated using the London II computer program.\nRecombinant human MGSA/GROα and IL-8 were purchased form Pepro Tech Inc. (Rocky Hill, N.J.) and radioactively labeled using ^125I-labeled Bolton-Hunter reagent (DuPont-NEN, Wilmington, Del.) (Bolton and Hunter, 1973). The labeled proteins were isolated using Sephadex G-25 column (Column PD-10, Pharmacia) pre-equilibrated with PBS containing 0.1% gelatin and stored at −70° C. after the addition of 1% bovine serum albumin.\nBinding studies with melanoma cell lines were performed by the method of Horuk and colleagues (Horuk et al., 1993). Briefly, the cells (1×10^5 cells/well) in 24-well plates were washed two times with Hank's Balanced Salt Solution and incubated with ^125I-labeled MGSA/GROα or IL-8 in the buffer containing 1% bovine serum albumin at 4° C. for 3 hr. The incubation was terminated by vacuum aspiration of the supernatant. The cells were washed three times in binding buffer, solubilized by the addition of 200 μl of 1% SDS, and transferred to vials for counting. The non-specific binding was estimated by measuring the binding in the presence of 100-fold excess of non-labeled ligand. The binding parameters were calculated using the Lundon II computer program (Lundon Software Inc., Chagrin Falls, Ohio)."}, "[3]": {"test_system": "RPMI-7951 melanoma cells", "test": "Cell growth assay, RPMI-7951", "assay_type": "cell-based", "procedure": "(§1) FIG. 15B. The effect of Antileukinate on the growth of melanoma cells. Melanoma cell lines and a control liver cancer cell line (2×10^4 cells/well) in 500 μ were cultured in a 24 well tissue culture plate in the presence of various concentrations of Antileukinate for 3 d. The culture media were changed to fresh media containing the same concentration of Antileukinate every 24 hr during the incubation period. After incubation, the cells were collected and the cell number was counted using a hemocytometer. RPMI-7951 cell line. Analysis of variance was used for multiple comparison.\n(§2) The cell lines (2×10^4 cells/well) in 500 μl cell culture medium were grown in 24 well tissue culture plates. After the cells adhered to the plate, the supernatants were aspirated and 500 μl of media containing various concentrations of Antileukinate were added to the wells. The cells were cultured for period indicated in the text. The culture media were changed to fresh media every 24 hr. After incubation, the cells were detached with trypsin-EDTA solution (Life Technologies Inc., Gaithersburg, Md., containing 0.05% of trypsin and 0.53 mM of EDTA in Hanks Balanced Salt Solution without Ca^2+ and Mg^2+) and the cell number was counted using a hemocytometer."}, "[4]": {"test_system": "Hep G2 liver cancer cells", "test": "Cell growth assay, Hep G2", "assay_type": "cell-based", "details": "72 hr", "procedure": "as §1, with “15C.” for “15B.”, “μl” for “μ”, “Liver cancer” for “RPMI-7951”, “line, Hep G2.” for “line.”\nas §2"}, "[5]": {"test_system": "DU145 (adenocarcinoma of prostate)", "test": "Growth of DU145, MTT assay", "assay_type": "cell-based", "details": "DU145, serum-starved, 24 hours", "procedure": "FIG. 18. The effect of Antileukinate on growth of DU145 (adenocarcinoma of prostate) cell line. Serum-starved DU145 were incubated with the indicated concentrations of Antileukinate for 24 hours. MTT assay was then performed. Cell umber was decreased in a dose-dependent manner and there are significant differences from controls at concentrations greater than, or equal to 100 μM of Antileukinate (p<0.05)."}, "[6]": {"test_system": "lung adenocarcinoma cell line KS-LU-1", "test": "Tumor cell growth, KS-LU-1", "assay_type": "cell-based"}, "[7]": {"test_system": "adenocarcinoma from breast tissue MCF-7", "test": "Tumor cell growth, MCF-7", "assay_type": "cell-based"}, "[8]": {"details": "Hep G2 culture, 100 μM peptide"}}}
{"substance": "RRWWCR [Ac-RRWWCR-NH2]", "values": [{"measurement": "effect on binding of radiolabeled MIP-1α", "setting": "[1]", "value": "did not affect the binding"}, {"measurement": "EC50", "setting": "[2]", "value": "~1", "unit": "µM"}, {"measurement": "cell growth at 100 μM peptide", "setting": "[3]; RPMI-7951, 100 μM", "value": "suppressed the cell growth almost completely"}, {"measurement": "EC50", "setting": "[3]; RPMI-7951, 72 hr, medium changed every 24 hr, read-out: ED50, cell growth inhibition", "value": 31, "unit": "µM"}, {"measurement": "effect on growth of Hep G2 liver cancer cells", "setting": "[4]", "value": "did not affect the growth"}, {"measurement": "concentrations with significant difference in cell number from controls (p<0.05)", "setting": "[5]", "value": "≥ 100", "unit": "µM"}, {"measurement": "effect on cell growth", "setting": "[6]", "value": "inhibits growth"}, {"measurement": "effect on cell growth", "setting": "[7]", "value": "inhibits growth"}, {"measurement": "time within which the peptide is substantially eliminated from the culture", "setting": "[8]", "value": "≤ 24", "unit": "h"}, {"measurement": "decrease of the major radioactivity peak (intact peptide)", "setting": "[8]; after 24 hr", "value": "more than 85%"}]}
